Legend:
Format in all cases: in vivo
Rhipicephalus microplus [1] = test: Rhipicephalus (Boophilus) microplus injection test (BOOPMI Inj); conditions: 168 h, injection into adult engorged female ticks, egg deposition after 7 days, read-out: activity (efficacy: 100% means all eggs are infertile); for pest or weed control at 0.02 mg: application rate 20 μg/tick; for pest or weed control at 0.004 mg: application rate 4 μg/tick
In short: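 Compound in DMSO, 1 μL, injected abdominally into five adult engorged females, which were then held in a climate chamber. Read-out is egg fertility, scored from deposition at 7 days, with unclear eggs followed to hatching (~42 days); 0% means all eggs fertile, 100% all infertile.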

Rhipicephalus microplus [2] = test: Rhipicephalus (Boophilus) microplus in-vitro contact test, larval cattle tick, strain Parkhurst (BOOPMI Cont); conditions: application rate 5 μg/cm^2 (=500 g/ha), tick larvae, after 48 hours, read-out: activity (efficacy: 100% means all larvae are dead or moribund)
In short: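 After 48 h at 27° C. and 85% humidity, percent dead or moribund larvae was scored from negative geotactic behaviour. Larvae (20-50, Parkhurst strain, synthetic pyrethroid-resistant) were exposed in tubes coated with compound from acetone, 900 ppm corresponding to 5 μg/cm^2.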

Ctenocephalides felis [3] = test: Ctenocephalides felis oral test (CTECFE Oral); conditions: 48 h, read-out: activity (mortality)
In short: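 Percent mortality was recorded 2 days after roughly 20 adult Ctenocephalides felis fed on treated cattle blood. The blood was warmed to 37 °C beneath a parafilm membrane, with the fleas kept at room temperature. Compound was dissolved in DMSO and diluted into the blood to test concentration.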

Spodoptera frugiperda = Spodoptera frugiperda spray test; conditions: in Zea mays, 168 h, read-out: activity (mortality)
In short: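 Percent kill of fall armyworm caterpillars was assessed 7 days after infesting dried, treated maize leaf sections. Treatment was a spray of compound in acetone/dimethylformamide, diluted with water containing emulsifier at 1000 ppm.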

Meloidogyne incognita = Meloidogyne incognita test; conditions: application rate 20 ppm, salad seedlings, after 14 days
Experimental: Meloidogyne incognita—Test Solvent: 125.0 parts by weight of acetone
To produce a suitable preparation of active compound, 1 part by weight of active compound is mixed with the stated amount of solvent, and the concentrate is diluted with water to the desired concentration.
Vessels are filled with sand, a solution of the active ingredient, a suspension containing eggs and larvae of the southern root-knot nematode (Meloidogyne incognita) and salad seeds. The salad seeds germinate and the seedlings grow. Galls develop in the roots.
After 14 days the nematicidal activity is determined based on the percentage of gall formation. 100% means no galls were found and 0% means the number of galls found on the roots of the treated plants was equal to that in untreated control plants.

Diabrotica balteata = Diabrotica balteata spray test; conditions: 168 h, wheat seeds, larvae, after 7 days, read-out: activity (efficacy: 100% means all seedlings have grown up like in the untreated, uninfected control); for pest or weed control at 32 µg/disc, 100 g/ha: application rate 100 g/ha (=32 μg/well); for pest or weed control at 160 µg/disc, 500 g/ha: application rate 500 g/ha (=160 μg/well)
In short: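 Efficacy (%) was scored 7 days after spraying, with 100% meaning growth like the untreated, uninfected control and 0% meaning no seedling grew. Spray solutions of compound in acetone/DMF with emulsifier-containing water went onto 1-day-germinated wheat seeds, and each unit was then infested with 10-20 banded cucumber beetle larvae.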

Rhipicephalus sanguineus = Rhipicephalus sanguineus in-vitro contact test, adult brown dog ticks (RHIPSA Cont); conditions: 48 h, after 48 hours, read-out: activity (efficacy: 100% means all ticks are dead or moribund); for pest or weed control at 1 µg/cm2, 100 g/ha: application rate 1 μg/cm^2 (=100 g/ha); for pest or weed control at 5 µg/cm2, 500 g/ha: application rate 5 μg/cm^2 (=500 g/ha)
In short: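 Compound in acetone was coated onto the inner walls of glass tubes and dried by rotation before adult brown dog ticks were exposed. Efficacy was scored at 48 h. Ticks unable to climb away from a 45–50 °C heating plate within 5 min counted as dead or moribund.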

[4] = test system: Aedes aegypti strain MONHEIM; test: Aedes aegypti test (AEDSAE surface treatment & contact assay); conditions: exposure 30 minutes, 24 hours after contact, read-out: efficacy (mortality); for mortality at 20 mg/m2: surface concentration 20 mg/m^2, glazed tile; for mortality at 4 mg/m2: surface concentration 4 mg/m^2, glazed tile
In short: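 Compound dissolved in acetone (2 mg/ml) with 2000 ppm rapeseed oil methyl ester, pipetted onto glazed tile and dried. Adult mosquitoes exposed on the surface for 30 min; percent mortality scored 24 h after contact.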

Myzus persicae [5] = test: Myzus persicae oral test; conditions: 120 h, read-out: activity (mortality)
In short: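 Percent mortality was recorded at day 5, where 0% means no aphids killed. Compound prepared from an acetone concentrate diluted in water and combined with IPL41 medium containing sugar was offered to mixed-stage green peach aphids, which sucked it through a parafilm seal.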

[6] = test system: Musca domestica strain WHO—N; test: Musca domestica test (MUSCDO surface treatment & contact assay); conditions: surface concentration 20 mg/m^2, glazed tile, exposure 30 minutes, 24 hours after contact, read-out: efficacy (mortality)
In short: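 Compound dissolved in acetone (2 mg/ml) with 2000 ppm rapeseed oil methyl ester and pipetted onto glazed tile; after acetone evaporation, adult flies exposed to dried surface for 30 minutes. Mortality (%) scored 24 hours after contact.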

Myzus persicae [7] = test: Myzus persicae spray test; conditions: in Brassica rapa, foliar, 120 h, read-out: activity (mortality), application rate 100 g/ha, spray, Chinese cabbage leaf disks, after 5 days
In short: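 Aphid mortality in % was assessed 5 days after spraying; leaf disks of Brassica pekinensis carrying mixed-instar green peach aphids were treated. Spray preparation: active compound in acetone plus dimethylformamide, diluted with emulsifier-containing water (1000 ppm).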

[8] = test system: Blattella germanica strain PAULINIA; test: Blattella germanica test (BLTTGE surface treatment & contact assay); conditions: surface concentration 20 mg/m^2, glazed tile, exposure 30 minutes, 24 hours after contact, read-out: efficacy (mortality)
Experimental: Blattella germanica Test (BLTTGE Surface Treatment & Contact Assay) Solvent: Aceton+2000 ppm rapeseed oil methyl ester (RME)
In order to produce a sufficient, active ingredient containing solution it is necessary to solve the test compound in the solvent-mix (acetone at 2 mg/ml/RME 2000 ppm). This solution is pipetted onto a glazed tile and after evaporation of the acetone, adult animals of the species Blattella germanica strain […] are placed onto the dried surface. The exposure time is 30 minutes. Mortality in percent (%) is determined 24 hours after contact of the insects to the treated surface. 100% mortality means that all tested insects are dead, whereas 0% means that no insect died.

Ctenocephalides felis [9] = test: Ctenocephalides felis in-vitro contact test, adult cat flea (CTECFE Cont); conditions: application rate 5 μg/cm^2 (=500 g/ha), adult cat fleas, after 48 hours, read-out: activity (efficacy: 100% means all fleas are dead or moribund)
In short: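 Efficacy, as percent of fleas dead or moribund, was scored 48 h after adults (5-10 per tube) were placed in glass tubes whose walls carried dried compound at 5 μg/cm^2 (900 ppm solution). Moribund meant failing to climb away from a 45-50° C. hot plate within 5 min.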

[10] = test system: Anopheles funestus strain FUMOZ-R; test: Anopheles funestus test (ANPHFU surface treatment & contact assay); conditions: surface concentration 20 mg/m^2, glazed tile, exposure 30 minutes, 24 hours after contact, read-out: efficacy (mortality)
Experimental: Anopheles funestus Test (ANPHFU Surface Treatment & Contact Assay) Solvent: Aceton+2000 ppm rapeseed oil methyl ester (RME)
In order to produce a sufficient, active ingredient containing solution it is necessary to solve the test compound in the solvent-mix (acetone at 2 mg/ml/RME 2000 ppm). This solution is pipetted onto a glazed tile and after evaporation of the acetone, adult mosquitoes of the species Anopheles funestus strain FUMOZ-R (Hunt et al., Med. Vet. Entomol. 2005 September; 19(3): 271-275) are placed onto the dried surface. The exposure time is 30 minutes. Mortality in percent (%) is determined 24 hours after contact of the insects to the treated surface. 100% mortality means that all tested insects are dead, whereas 0% means that no insect died.

Tetranychus urticae = Tetranychus urticae spray test, OP-resistant; conditions: foliar, 144 h, application rate 500 g/ha, French bean leaf disks, after 6 days
Experimental: Tetranychus urticae—Spray Test OP-Resistant Solvent: 78.0 parts by weight acetone • 1.5 parts by weight dimethylformamide Emulsifier: alkylarylpolyglycol ether
To produce a suitable preparation of active compound, 1 part by weight of active compound is mixed with the stated amount of solvents and is diluted with water, containing an emulsifier concentration of 1000 ppm, to the desired concentration. Further test concentrations are prepared by dilution with emulsifier containing water.
French bean (Phaseolus vulgaris) leaf disks infected with all instars of the two spotted spidermite (Tetranychus urticae), are sprayed with a preparation of the active ingredient of the desired concentration.
After 6 days mortality in % is determined. 100% means all spider mites have been killed and 0% means none of the spider mites have been killed.

Structure (SMILES) | pest or weed control at 0.02 mg (Rhipicephalus microplus [1]) | pest or weed control at 5 µg/cm2 (Rhipicephalus microplus [2]) | mortality at 100 ppm (Ctenocephalides felis [3]) | mortality at 100 g/ha (Spodoptera frugiperda) | mortality at 500 g/ha (Spodoptera frugiperda) | nematicidal activity (100% means no galls were found) (Meloidogyne incognita) | pest or weed control at 32 µg/disc, 100 g/ha (Diabrotica balteata) | pest or weed control at 160 µg/disc, 500 g/ha (Diabrotica balteata) | pest or weed control at 0.004 mg (Rhipicephalus microplus [1]) | pest or weed control at 5 µg/cm2, 500 g/ha (Rhipicephalus sanguineus) | mortality at 20 mg/m2 [4] | also measured
CCOc1nc([C@H](C)NC(=O)c2cc(Cl)cc(C(F)(F)F)c2)n(-c2ccc(C#N)cn2)n1 [I-12] | 100% | 100% | 90% | 100% | 100% | 90% | 100% | 100% |  |  |  | 
CCOc1nc([C@H](C)NC(=O)c2cc(C(F)(F)F)cc(C(F)(F)F)c2)n(-c2ccc(C#N)cn2)n1 [I-13] | 100% | 100% | 100% | 100% | 100% | 90% | 100% | 100% | 100% |  |  | 
CCOc1nc([C@H](C)NC(=O)c2cc(Cl)cc(Cl)c2)n(-c2ccc(C#N)cn2)n1 [I-14] | 100% | 100% |  | 83% | 100% | 100% | 100% | 100% | 100% |  |  | 
CC(C)c1nc([C@H](C)NC(=O)c2cc(Cl)cc(Br)c2)n(-c2ccc(C#N)cn2)n1 [I-19] | 100% | 100% | 100% | 100% |  | 90% | 100% |  | 100% | 100% | 80 to 100% | pest or weed control at 1 µg/cm2, 100 g/ha (Rhipicephalus sanguineus): 100%
CC(C)c1nc([C@H](C)NC(=O)c2cccc(Br)n2)n(-c2ccc(C#N)cn2)n1 [I-23] | 100% |  |  |  |  | 90% |  |  | 80% | 80% |  | 
C[C@H](NC(=O)c1cc(Cl)cc(C(F)(F)F)c1)c1ncnn1-c1cc([N+](=O)[O-])ccn1 [II-24] | 100% | 100% |  |  | 100% | 100% |  | 80% | 80% |  |  | pest or weed control at 1 µg/cm2, 100 g/ha (Rhipicephalus sanguineus): 80%
C[C@H](NC(=O)c1cc(Cl)cc(OC(F)(F)F)c1)c1ncnn1-c1cc(NC(=O)C2CC2)ccn1 [II-25] | 100% | 100% |  | 100% | 100% | 90% |  | 80% | 100% | 80% | 80 to 100% | mortality at 4 ppm (Myzus persicae [5]): 100%; mortality at 4 mg/m2 [4]: 80 to 100%; mortality at 20 mg/m2 [6]: 80 to 100%
CC(=O)N(C)c1ccc(-n2ncnc2[C@H](C)NC(=O)c2cc(Cl)cc(C(F)(F)F)c2)nc1 [II-80] |  | 100% | 100% |  |  |  |  |  | 80% |  | 80 to 100% | mortality at 100 g/ha (Myzus persicae [7]): 90%; mortality at 0.8 ppm (Myzus persicae [5]): 100%; mortality at 4 mg/m2 [4]: 80 to 100%; mortality at 20 mg/m2 [8]: 80 to 100%; pest or weed control at 5 µg/cm2 (Ctenocephalides felis [9]): 100%; mortality at 20 mg/m2 [10]: 80 to 100%; mortality at 500 g/ha (Tetranychus urticae): 90%

Source: patent US20220274947A1, “NOVEL HETEROARYL-TRIAZOLE COMPOUNDS AS PESTICIDES” (Bayer Aktiengesellschaft, priority 2019, published 2022)
